According to publication PMC11079024, “Identification of a family of species-selective complex I inhibitors as potential anthelmintics” (Nature Communications, 2024):
Values joined by “and” are separate entries in the source; they are usually repeats but may differ in a detail not shown here. Identical values can stand only once. Like-named read-outs stand apart in the source and are kept apart here.

Columns and labels:
[1] = biological target: B. taurus (heart) complex I (Bos taurus, UniProt P03887+P17694+P42026); test: biochemical; format: biochemical
Procedure, shortened: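 Complex I activity followed as DCIP reduction (600 nm, 30 s reads, 15 min) with 80 μM NADH and 60 μM decylubiquinone in 25 mM KPi pH 7.5 containing 2 μM antimycin A and 2 mM KCN. Freeze-thawed mouse or bovine heart mitochondria at 0.2 mg/mL; initial-rate percent of solvent control, single-point 100 μM or dose-response.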

in vitro = settings: human, HEK293 Cell Viability Assay LC50, 2 days exposure
L1 wild-type C. elegans = test: whole plant or invertebrate; settings: Caenorhabditis elegans, 15 h, read-out: C. elegans KCN Survival Assay LC50

B. taurus (heart) complex I, sequence (P03887 whole entry): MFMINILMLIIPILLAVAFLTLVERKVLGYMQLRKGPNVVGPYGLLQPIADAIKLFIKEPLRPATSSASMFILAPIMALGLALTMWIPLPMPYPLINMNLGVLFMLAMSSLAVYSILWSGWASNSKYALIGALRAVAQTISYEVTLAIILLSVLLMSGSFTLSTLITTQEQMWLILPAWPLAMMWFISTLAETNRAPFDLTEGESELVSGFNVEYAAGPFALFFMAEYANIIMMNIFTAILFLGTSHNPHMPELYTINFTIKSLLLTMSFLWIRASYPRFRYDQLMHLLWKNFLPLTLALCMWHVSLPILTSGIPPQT
B. taurus (heart) complex I, sequence (P17694 34-463): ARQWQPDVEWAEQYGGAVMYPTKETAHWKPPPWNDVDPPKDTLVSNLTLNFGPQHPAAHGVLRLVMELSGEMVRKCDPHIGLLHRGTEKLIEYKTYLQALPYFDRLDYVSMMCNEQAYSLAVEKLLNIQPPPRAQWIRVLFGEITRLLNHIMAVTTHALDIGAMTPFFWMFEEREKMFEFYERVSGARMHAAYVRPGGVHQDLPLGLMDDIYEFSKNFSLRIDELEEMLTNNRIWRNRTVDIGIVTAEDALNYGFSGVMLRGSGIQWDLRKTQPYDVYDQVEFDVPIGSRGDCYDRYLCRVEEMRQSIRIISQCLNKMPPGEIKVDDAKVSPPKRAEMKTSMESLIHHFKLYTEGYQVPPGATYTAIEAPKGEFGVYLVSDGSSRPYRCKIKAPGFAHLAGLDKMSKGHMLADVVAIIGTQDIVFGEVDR
B. taurus (heart) complex I, sequence (P42026 38-216): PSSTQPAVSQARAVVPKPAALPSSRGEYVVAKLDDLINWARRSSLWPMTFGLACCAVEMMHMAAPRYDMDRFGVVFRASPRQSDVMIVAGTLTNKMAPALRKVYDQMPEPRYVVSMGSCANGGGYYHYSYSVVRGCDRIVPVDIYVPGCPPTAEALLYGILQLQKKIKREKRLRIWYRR

COc1cc2c(cc1OC)C(/C=C/c1ccc(N(C)C)cc1)=NCC2 [NPD6303]
activity at 0.0001 µM ([1]; B. taurus, dose 0.0001 µM, Mean of replicates, read-out: Complex I activity, dose-response data): 91.7%
Complex I activity, dose-response data ([1]; B. taurus, dose 0.0001 µM, individual replicates (Rep)): 93.903 and 88.856 and 86.554
activity at 0.0001 µM ([1]; B. taurus, dose 0.0001 µM, individual replicates (Rep), read-out: Complex I activity, dose-response data): 97.5%
activity at 0.0005 µM ([1]; B. taurus, dose 0.0005 µM, Mean of replicates, read-out: Complex I activity, dose-response data): 92.3%
Complex I activity, dose-response data ([1]; B. taurus, dose 0.0005 µM, individual replicates (Rep)): 92.515 and 88.363 and 93.860
activity at 0.0005 µM ([1]; B. taurus, dose 0.0005 µM, individual replicates (Rep), read-out: Complex I activity, dose-response data): 94.5%
activity at 0.001 µM ([1]; B. taurus, dose 0.001 µM, Mean of replicates, read-out: Complex I activity, dose-response data): 92%
Complex I activity, dose-response data ([1]; B. taurus, dose 0.001 µM, individual replicates (Rep)): 95.392 and 88.341 and 90.155
activity at 0.001 µM ([1]; B. taurus, dose 0.001 µM, individual replicates (Rep), read-out: Complex I activity, dose-response data): 93.9%
activity at 0.0025 µM ([1]; B. taurus, dose 0.0025 µM, Mean of replicates, read-out: Complex I activity, dose-response data): 91.7%
Complex I activity, dose-response data ([1]; B. taurus, dose 0.0025 µM, individual replicates (Rep)): 92.736 and 89.606 and 94.534
activity at 0.0025 µM ([1]; B. taurus, dose 0.0025 µM, individual replicates (Rep), read-out: Complex I activity, dose-response data): 89.8%
activity at 0.005 µM ([1]; B. taurus, dose 0.005 µM, Mean of replicates, read-out: Complex I activity, dose-response data): 93.7%
Complex I activity, dose-response data ([1]; B. taurus, dose 0.005 µM, individual replicates (Rep)): 98.592 and 81.676 and 99.845
activity at 0.005 µM ([1]; B. taurus, dose 0.005 µM, individual replicates (Rep), read-out: Complex I activity, dose-response data): 94.8%
activity at 0.013 µM ([1]; B. taurus, dose 0.013 µM, Mean of replicates, read-out: Complex I activity, dose-response data): 94.7%
Complex I activity, dose-response data ([1]; B. taurus, dose 0.013 µM, individual replicates (Rep)): 95.041 and 103.924 and 78.354 and 101.425
activity at 0.025 µM ([1]; B. taurus, dose 0.025 µM, Mean of replicates, read-out: Complex I activity, dose-response data): 91.5%
Complex I activity, dose-response data ([1]; B. taurus, dose 0.025 µM, individual replicates (Rep)): 93.260 and 100.684 and 76.425 and 95.829
activity at 0.063 µM ([1]; B. taurus, dose 0.063 µM, Mean of replicates, read-out: Complex I activity, dose-response data): 90.4%
Complex I activity, dose-response data ([1]; B. taurus, dose 0.063 µM, individual replicates (Rep)): 90.670 and 95.493 and 75.718 and 99.663
activity at 0.125 µM ([1]; B. taurus, dose 0.125 µM, Mean of replicates, read-out: Complex I activity, dose-response data): 88.5%
Complex I activity, dose-response data ([1]; B. taurus, dose 0.125 µM, individual replicates (Rep)): 91.682 and 93.823 and 68.860 and 99.585
activity at 0.313 µM ([1]; B. taurus, dose 0.313 µM, Mean of replicates, read-out: Complex I activity, dose-response data): 88.2%
Complex I activity, dose-response data ([1]; B. taurus, dose 0.313 µM, individual replicates (Rep)): 96.036 and 78.933 and 86.373
activity at 0.313 µM ([1]; B. taurus, dose 0.313 µM, individual replicates (Rep), read-out: Complex I activity, dose-response data): 91.3%
activity at 0.625 µM ([1]; B. taurus, dose 0.625 µM, Mean of replicates, read-out: Complex I activity, dose-response data): 97.3%
Complex I activity, dose-response data ([1]; B. taurus, dose 0.625 µM, individual replicates (Rep)): 107.704 and 91.974 and 95.636
activity at 0.625 µM ([1]; B. taurus, dose 0.625 µM, individual replicates (Rep), read-out: Complex I activity, dose-response data): 93.9%
activity at 1.5 µM ([1]; B. taurus, dose 1.5 µM, Mean of replicates, read-out: Complex I activity, dose-response data): 93.1%
Complex I activity, dose-response data ([1]; B. taurus, dose 1.5 µM, individual replicates (Rep)): 104.204 and 86.663 and 89.601
activity at 1.5 µM ([1]; B. taurus, dose 1.5 µM, individual replicates (Rep), read-out: Complex I activity, dose-response data): 92.1%
activity at 3 µM ([1]; B. taurus, dose 3 µM, Mean of replicates, read-out: Complex I activity, dose-response data): 91.2%
Complex I activity, dose-response data ([1]; B. taurus, dose 3 µM, individual replicates (Rep)): 87.892 and 104.226 and 89.807 and 82.898
activity at 15 µM ([1]; B. taurus, dose 15 µM, Mean of replicates, read-out: Complex I activity, dose-response data): 76.4%
Complex I activity, dose-response data ([1]; B. taurus, dose 15 µM, individual replicates (Rep)): 86.661 and 69.921 and 66.695
activity at 15 µM ([1]; B. taurus, dose 15 µM, individual replicates (Rep), read-out: Complex I activity, dose-response data): 82.4%
activity at 37.5 µM ([1]; B. taurus, dose 37.5 µM, Mean of replicates, read-out: Complex I activity, dose-response data): 51.7%
Complex I activity, dose-response data ([1]; B. taurus, dose 37.5 µM, individual replicates (Rep)): 53.115 and 63.240 and 41.319 and 49.280
activity at 75 µM ([1]; B. taurus, dose 75 µM, Mean of replicates, read-out: Complex I activity, dose-response data): 29.9%
Complex I activity, dose-response data ([1]; B. taurus, dose 75 µM, individual replicates (Rep)): 35.395 and 24.387 and 27.438
activity at 75 µM ([1]; B. taurus, dose 75 µM, individual replicates (Rep), read-out: Complex I activity, dose-response data): 32.4%
IC50 ([1]; heart mitochondria, read-out: B. taurus Complex I IC50): 34.3 µM
CC50 at 2 days (in vitro): 33.4 µM
LC50 (L1 wild-type C. elegans): 32.2 µM
